Results as given in ChEMBL document CHEMBL1136565, “5-Azidoepibatidine: an exceptionally potent photoaffinity ligand for neuronal alpha 4 beta 2 and alpha 7 nicotinic acetylcholine receptors” (Bioorg Med Chem Lett, 2003).

Experiments:
[1] = Binding affinity to Drosophila nicotinic receptor was measured using [3H]imidacloprid as radioligand; parameters: species or system Drosophila melanogaster
[2] = target: Neuronal acetylcholine receptor; alpha4/beta2 (Homo sapiens, UniProt P17787+P43681); assay: Binding affinity to alpha4 beta-2 receptor subtype from mouse fibroblast M10 cells was measured using [3 H]nicotine; format: cell-based
Chain of Neuronal acetylcholine receptor; alpha4/beta2 (P17787 whole entry): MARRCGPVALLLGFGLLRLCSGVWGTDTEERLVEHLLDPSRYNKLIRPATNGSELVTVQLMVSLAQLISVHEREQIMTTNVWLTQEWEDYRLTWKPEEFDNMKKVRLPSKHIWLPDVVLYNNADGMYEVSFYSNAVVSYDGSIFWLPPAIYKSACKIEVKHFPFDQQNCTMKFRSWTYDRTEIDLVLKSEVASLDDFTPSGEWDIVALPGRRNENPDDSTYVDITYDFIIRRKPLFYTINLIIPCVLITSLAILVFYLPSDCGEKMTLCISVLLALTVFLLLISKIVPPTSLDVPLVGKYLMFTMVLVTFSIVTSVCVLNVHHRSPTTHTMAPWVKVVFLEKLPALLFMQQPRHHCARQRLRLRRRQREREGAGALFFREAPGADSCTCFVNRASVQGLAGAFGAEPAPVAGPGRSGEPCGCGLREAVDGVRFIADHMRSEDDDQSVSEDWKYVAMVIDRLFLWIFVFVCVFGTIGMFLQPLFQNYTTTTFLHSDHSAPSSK
Chain of Neuronal acetylcholine receptor; alpha4/beta2 (P43681 whole entry): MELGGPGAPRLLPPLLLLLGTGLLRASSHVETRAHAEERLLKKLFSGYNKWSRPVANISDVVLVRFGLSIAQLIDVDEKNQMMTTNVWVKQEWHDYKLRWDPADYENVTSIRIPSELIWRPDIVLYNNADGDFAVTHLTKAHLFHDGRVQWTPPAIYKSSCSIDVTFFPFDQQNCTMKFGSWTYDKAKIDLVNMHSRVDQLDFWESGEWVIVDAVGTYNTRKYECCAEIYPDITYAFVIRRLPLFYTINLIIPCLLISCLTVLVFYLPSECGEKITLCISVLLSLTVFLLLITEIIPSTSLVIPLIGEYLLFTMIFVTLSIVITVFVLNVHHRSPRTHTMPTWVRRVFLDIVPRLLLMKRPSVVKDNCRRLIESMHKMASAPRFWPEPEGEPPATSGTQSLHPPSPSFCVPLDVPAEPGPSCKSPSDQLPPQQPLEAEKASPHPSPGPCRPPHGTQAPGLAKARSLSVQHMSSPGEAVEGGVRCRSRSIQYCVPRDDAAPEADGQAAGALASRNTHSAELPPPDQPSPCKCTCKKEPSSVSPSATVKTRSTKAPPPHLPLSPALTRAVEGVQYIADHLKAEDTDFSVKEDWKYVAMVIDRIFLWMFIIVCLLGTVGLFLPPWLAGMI

[3] = target: Neuronal acetylcholine receptor subunit alpha-7 (Homo sapiens, UniProt P36544); assay: Binding affinity to alpha-7 receptor subtype from human neuroblastoma SH-SY5Y cells was measured using [125I]-alpha-bungarotoxin as radioligand; format: cell-based
Chain of Neuronal acetylcholine receptor subunit alpha-7 (P36544 whole entry): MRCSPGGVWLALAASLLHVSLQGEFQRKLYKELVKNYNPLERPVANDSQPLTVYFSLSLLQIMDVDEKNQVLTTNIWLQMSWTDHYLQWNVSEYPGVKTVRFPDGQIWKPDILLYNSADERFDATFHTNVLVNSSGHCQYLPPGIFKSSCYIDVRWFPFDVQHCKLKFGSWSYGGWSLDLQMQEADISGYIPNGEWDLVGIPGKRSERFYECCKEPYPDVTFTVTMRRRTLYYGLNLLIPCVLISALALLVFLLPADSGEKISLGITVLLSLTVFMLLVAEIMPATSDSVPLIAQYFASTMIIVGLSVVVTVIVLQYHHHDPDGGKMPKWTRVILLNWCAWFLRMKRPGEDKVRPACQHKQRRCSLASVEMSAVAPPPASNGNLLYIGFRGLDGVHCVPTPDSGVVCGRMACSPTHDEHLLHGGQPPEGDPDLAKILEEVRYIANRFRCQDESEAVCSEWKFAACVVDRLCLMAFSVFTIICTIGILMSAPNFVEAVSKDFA

Q: For [N-]=[N+]=Nc1cc(C2CC3CCC2N3)cnc1Cl (stereo not given) [AZIDOEPIBATIDINE], which Ki [1] is on record?
A: The Ki was 2100 nM.

Q: What about the Ki [2] of the same compound?
A: Its Ki is 0.027 nM.

Q: And the Ki [3]?
A: Its Ki is 9.7 nM.

Q: Which results are given for Clc1ccc(C2CC3CCC2N3)cn1 (stereo not given) [EPIBATIDINE]?
A: Ki [1]: 200 nM; Ki [3]: 10.2 nM
